Experimental data taken from article PMC6968685 (Journal of Enzyme Inhibition and Medicinal Chemistry, 2020).
Like-named read-outs stand apart in the source and are kept apart here.

Columns and labels:
[1] = tested on: L. donovani (MHOM/IN/00/DEVI) promastigotes; assay: In vitro antileishmanial activity, MTT assay on promastigotes; assay type: cell-based; details: Leishmania donovani, 72 h incubation, ≥10 = no activity noted at the highest concentration tested
Description: L. donovani (MHOM/IN/00/DEVI) used in this study was provided by the CNR Leishmania (Montpellier, France). The effects of the tested compounds on the growth of L. donovani (MHOM/IN/00/DEVI) promastigotes were assessed by MTT assay. Briefly, promastigotes in log-phase in Schneider’s medium supplemented with 20% foetal calf serum (FCS), 2 mM L-glutamine and antibiotics (100 U/ml penicillin and 100 µg/ml streptomycin), were incubated at an average density of 10^6 parasites/ml in sterile 96-well plates with various concentrations of compounds dissolved in DMSO (final concentration less than 0.5% v/v), in duplicate. Appropriate controls treated with DMSO and amphotericin B (reference drug purchased from Sigma-Aldrich) were added to each set of experiments. After 72 h incubation period at 27 °C, parasite metabolic activity was determined. Each well was microscopically examined for precipitate formation. To each well was added 20 µl of 5 mg/ml MTT [3–(4,5-dimethylthiazol-2-yl)-2,5-diphenyltetrazolium bromide)] solution followed by 4 h incubation time. The enzyme reaction was stopped by addition of 100 µl of 50% isopropanol/10% sodium dodecyl sulfate. Plates were vigorously shaken (300 rpm) for 10 min, and the absorbance was measured at 570 nm in a BIO-TEK ELx808 Absorbance Microplate Reader. […] IC50 of the parasite’s growth (half maximal inhibitory concentration or IC50 values) were then calculated from the obtained experimental results using a previously described regression programme.

[2] = tested on: P. falciparum CQ-sensitive strain 3D7; assay: In vitro antiplasmodial activity, SYBR Green I fluorescence-based method, strain 3D7; assay type: cell-based; details: for IC50: Plasmodium falciparum, chloroquine-sensitive strain 3D7, 48 h incubation, read-out: P. falciparum strains IC50 values, 3D7; for Selectivity index HepG2/3D7: SI = CC50 HepG2 / IC50 P. falciparum 3D7
Description: The in vitro antiplasmodial activities were tested over concentrations ranging from […] against culture-adapted P. falciparum reference strains 3D7 and W2. […] The parasites were cultivated in RPMI medium (Sigma-Aldrich, Lyon, France) supplemented with 0.5% Albumax I (Life Technologies Corporation, Paisley, UK), hypoxanthine (Sigma-Aldrich), and gentamicin (Sigma-Aldrich) with human erythrocytes and were incubated at 37 °C in a candle jar, as described previously[43] .The P. falciparum drug susceptibility test was carried out in 96-well flat-bottom sterile plates in a final volume of 250 µl. After 48 h incubation period with the drugs, quantities of DNA in treated and control cultures of parasites in human erythrocytes were quantified using the SYBR Green I (Sigma-Aldrich) fluorescence-based method[44]^,[45]. Briefly, after incubation, plates were frozen at −20 °C until use. Plates were then thawed for 2 h at room temperature, and 100 µl of each homogenised culture was transferred to a well of a 96-well flat-bottom sterile black plate (Nunc, Inc., Rochester, NY) that contained 100 µl of the SYBR Green I lysis buffer (2xSYBR Green, 20 mM Tris base pH 7.5, 5 mM EDTA, 0.008% w/v saponin, 0.08% w/v Triton X-100). […] Plates were incubated for 1 h at room temperature and then read on a fluorescence plate reader (Tecan, Grödig, Austria) using excitation and emission wavelengths of 485 and 535 nm, respectively. IC50 values were calculated by non-linear regression analysis of data from dose-response curves, using TableCurve 2D version 5.0 software (Systat Software, San Jose, CA). IC50 values are reported as means calculated from three independent experiments.

[3] = tested on: T. brucei brucei AnTat 1.9; assay: In vitro antitrypanosomal activity, Alamar Blue assay; assay type: cell-based; details: for Selectivity index HepG2/Tryp.: SI = CC50 HepG2 / IC50 Trypanosoma brucei brucei; for IC50: Trypanosoma brucei, slender bloodstream trypomastigotes, AnTat 1.9 strain, read-out: Trypanosoma brucei brucei IC50 values, Trypanos Antat 1.9
Description: The effects of the tested compounds on the growth of T. brucei brucei were assessed using an Alamar Blue® assay described by Räz et al.[49] T. brucei brucei AnTat 1.9 (IMTA, Antwerpen, Belgium) was cultured in MEM with Earle’s salts, supplemented according to the protocol of Baltz et al.[50] with the following modifications: 0.5 mM mercaptoethanol (Sigma Aldrich), 1.5 mM L-cysteine (Sigma Aldrich), 0.05 mM bathocuproine sulphate (Sigma Aldrich), and 20% heat-inactivated horse serum (Gibco, France) at 37 °C and 5% CO2. Samples were incubated at an average density of 2000 parasites/well in sterile 96-wells plates (Fisher, France) with various concentrations of compounds dissolved in 0.9% NaCl. All doses were tested in duplicate. Appropriate controls treated with solvents 0.9% NaCl or DMSO or with suramin, pentamidine, eflornithine, and fexinidazole (reference drugs purchased from Sigma Aldrich and Fluorochem, UK) were added to each set of experiments. After 69 h incubation period at 37 °C, 10 µl of the viability marker Alamar Blue (Fisher) was added to each well, and the plates were incubated for 5 h. The plates were read in a PerkinElmer ENSPIRE (Germany) microplate reader using an excitation wavelength of 530 nm and an emission wavelength of 590 nm. […] IC50 values were calculated using a nonlinear regression analysis of dose-response curves performed using GraphPad Prism software (La Jolla, CA). IC50 values were calculated from three independent experiments.

[4] = Cytotoxicity evaluation, MTT; assay type: cell-based, human; details: human
Description: These cells are a commonly used human hepatocarcinoma-derived cell line that has characteristics similar to those of primary hepatocytes. These cells express many hepatocyte-specific metabolic enzymes, thus enabling the cytotoxicity of tested product metabolites to be evaluated. […] Duplicate assays were performed for each sample. Each well was microscopically examined for precipitate formation before the medium was aspirated from the wells. After aspiration, 100 µl of MTT solution (0.5 mg/ml in medium without FCS) were then added to each well. […] The MTT solution was removed, and DMSO (100 µl) was added to dissolve the resulting blue formazan crystals. Plates were shaken vigorously (300 rpm) for 5 min. The absorbance was measured at 570 nm with 630 nm as reference wavelength in a BIO-TEK ELx808 Absorbance Microplate Reader. DMSO was used as blank and doxorubicin (Sigma Aldrich) as positive control. Cell viability was calculated as percentage of control (cells incubated without compound). The CC50 was determined from the dose-response curve using the TableCurve 2D version 5.0 software (Systat Software, San Jose, CA)

C[C@@H]1[C@H](O)[C@@H](C)/C=C/C=C/C=C/C=C/C=C/C=C/C=C/[C@H](O[C@@H]2O[C@H](C)[C@@H](O)[C@H](N)[C@@H]2O)C[C@@H]2O[C@](O)(C[C@@H](O)C[C@@H](O)[C@H](O)CC[C@@H](O)C[C@@H](O)CC(=O)O[C@H]1C)C[C@H](O)[C@H]2C(=O)O [Amphotericin B, reference compound]
IC50 [1]: 0.1 ± 0.04 µM

CN(C)CCCCNCc1ccc(-c2cc(-c3ccc(CNCCCCN(C)C)cc3)c3ccccc3n2)cc1 [Compound 1a, 2,4-Bis{4-[(4-dimethylaminobutyl)aminomethyl]phenyl}quinoline]
IC50 [2]: 4.08 ± 0.488 µM | Selectivity index HepG2/3D7 [2]: 1.45 | IC50 [1]: ≥ 10 µM | Selectivity index HepG2/Tryp. [3]: 7.03 | IC50 [3]: 0.84 ± 0.033 µM | CC50 at 72 h [4]: 5.91 ± 1.5 µM

CN1CCN(CCCCNCc2ccc(-c3cc(-c4ccc(CNCCCCN5CCN(C)CC5)cc4)c4ccccc4n3)cc2)CC1 [Compound 1d, 2,4-Bis{4-[(4–(4-methylpiperazin-1-yl)butyl)aminomethyl]phenyl}quinoline]
IC50 [2]: 0.69 ± 0.07 µM | Selectivity index HepG2/3D7 [2]: 11.17 | IC50 [1]: ≥ 10 µM | Selectivity index HepG2/Tryp. [3]: 6.32 | IC50 [3]: 1.22 ± 0.121 µM | CC50 at 72 h [4]: 7.71 ± 0.4 µM

c1ccc2c(-c3ccc(CNCCN4CCOCC4)cc3)cc(-c3ccc(CNCCN4CCOCC4)cc3)nc2c1 [Compound 1h, 2,4-Bis{4-[(2-morpholinoethyl)aminomethyl]phenyl}quinoline]
IC50 [2]: 1.34 ± 0.173 µM | Selectivity index HepG2/3D7 [2]: 3.36 | IC50 [1]: ≥ 10 µM | Selectivity index HepG2/Tryp. [3]: 2.83 | IC50 [3]: 1.59 ± 0.071 µM | CC50 at 72 h [4]: 4.5 ± 0.4 µM

CN(C)CCCNCc1cccc(-c2cc(-c3cccc(CNCCCN(C)C)c3)c3ccccc3n2)c1 [Compound 1q, 2,4-Bis{3-[(3-dimethylaminopropyl)aminomethyl]phenyl}quinoline]
IC50 [2]: 1.44 ± 0.128 µM | Selectivity index HepG2/3D7 [2]: 4.68 | IC50 [1]: ≥ 10 µM | Selectivity index HepG2/Tryp. [3]: 5.18 | IC50 [3]: 1.3 ± 0.101 µM | CC50 at 72 h [4]: 6.74 ± 0.7 µM

CN1CCN(CCCNCc2cccc(-c3cc(-c4cccc(CNCCCN5CCN(C)CC5)c4)c4ccccc4n3)c2)CC1 [Compound 1r, 2,4-Bis{3-[(3–(4-methylpiperazin-1-yl)propyl)aminomethyl]phenyl}quinoline]
IC50 [2]: 1.95 ± 0.774 µM | Selectivity index HepG2/3D7 [2]: 2.55 | IC50 [1]: ≥ 10 µM | Selectivity index HepG2/Tryp. [3]: 3.65 | IC50 [3]: 1.36 ± 0.194 µM | CC50 at 72 h [4]: 4.97 ± 0.3 µM

CN(C)CCCCNCc1ccc(-c2nc(-c3ccc(CNCCCCN(C)C)cc3)c3ccccc3n2)cc1 [Compound 3a, 2,4-Bis{4-[(4-dimethylaminobutyl)aminomethyl]phenyl}quinazoline]
IC50 [2]: 2.15 ± 0.106 µM | Selectivity index HepG2/3D7 [2]: 1.96 | IC50 [1]: ≥ 10 µM | Selectivity index HepG2/Tryp. [3]: 4.70 | IC50 [3]: 0.9 ± 0.054 µM | CC50 at 72 h [4]: 4.23 ± 0.4 µM

CN(C)CCNCc1ccc(-c2nc(-c3ccc(CNCCN(C)C)cc3)c3ccccc3n2)cc1 [Compound 3c, 2,4-Bis{4-[(2-dimethylaminoethyl)aminomethyl]phenyl}quinazoline]
IC50 [2]: 1.06 ± 0.103 µM | Selectivity index HepG2/3D7 [2]: 14.97 | IC50 [1]: ≥ 10 µM | Selectivity index HepG2/Tryp. [3]: 10.72 | IC50 [3]: 1.48 ± 0.178 µM | CC50 at 72 h [4]: 15.9 ± 1.7 µM

CN1CCN(CCCCNCc2ccc(-c3nc(-c4ccc(CNCCCCN5CCN(C)CC5)cc4)c4ccccc4n3)cc2)CC1 [Compound 3d, 2,4-Bis{4-[(4–(4-methylpiperazin-1-yl)butyl)aminomethyl]phenyl}quinazoline]
IC50 [2]: 2.35 ± 0.488 µM | Selectivity index HepG2/3D7 [2]: 12.22 | IC50 [1]: ≥ 10 µM | Selectivity index HepG2/Tryp. [3]: 15.44 | IC50 [3]: 1.86 ± 0.135 µM | CC50 at 72 h [4]: 28.7 ± 1.9 µM

CN1CCN(CCCNCc2ccc(-c3nc(-c4ccc(CNCCCN5CCN(C)CC5)cc4)c4ccccc4n3)cc2)CC1 [Compound 3e, 2,4-Bis{4-[(3–(4-methylpiperazin-1-yl)propyl)aminomethyl]phenyl}quinazoline]
IC50 [2]: 1.52 ± 0.172 µM | Selectivity index HepG2/3D7 [2]: 10.44 | IC50 [1]: ≥ 10 µM | Selectivity index HepG2/Tryp. [3]: 6.64 | IC50 [3]: 2.39 ± 0.129 µM | CC50 at 72 h [4]: 15.9 ± 1.7 µM

COc1ccc2c(-c3ccc(CNCCCN(C)C)cc3)nc(-c3ccc(CNCCCN(C)C)cc3)nc2c1 [Compound 3n, 7-Methoxy-2,4-bis{4-[(3-dimethylaminopropyl)aminomethyl]phenyl}quinazoline]
IC50 [2]: 2.52 ± 0.237 µM | Selectivity index HepG2/3D7 [2]: 1.08 | IC50 [1]: ≥ 10 µM | Selectivity index HepG2/Tryp. [3]: 2.58 | IC50 [3]: 1.05 ± 0.058 µM | CC50 at 72 h [4]: 2.71 ± 0.3 µM

CN(C)CCCNCc1cccc(-c2nc(-c3cccc(CNCCCN(C)C)c3)c3ccccc3n2)c1 [Compound 3s, 2,4-Bis{3-[(3-dimethylaminopropyl)aminomethyl]phenyl}quinazoline]
IC50 [2]: 1.13 ± 0.107 µM | Selectivity index HepG2/3D7 [2]: 1.01 | IC50 [1]: ≥ 10 µM | Selectivity index HepG2/Tryp. [3]: 0.55 | IC50 [3]: 2.07 ± 0.196 µM | CC50 at 72 h [4]: 1.14 ± 0.4 µM

COc1cccc2c1C(=O)c1c(O)c3c(c(O)c1C2=O)C[C@@](O)(C(=O)CO)C[C@@H]3O[C@H]1C[C@H](N)[C@H](O)[C@H](C)O1 [Doxorubicin, reference compound]
CC50 at 72 h ([4]; HepG2 cells, 72 h, read-out: Cytotoxicity to HepG2 cells CC50 values): 0.06 ± 0.02 µM

NCCCC(N)(C(=O)O)C(F)F (centres unmarked) [Eflornithine, reference compound]
IC50 [3]: 15.2 ± 0.64 µM

CSc1ccc(OCc2ncc([N+](=O)[O-])n2C)cc1 [Fexinidazole, reference compound]
IC50 [3]: 0.59 ± 0.039 µM

Cc1ccc(C(=O)Nc2ccc(S(=O)(=O)O)c3cc(S(=O)(=O)O)cc(S(=O)(=O)O)c23)cc1NC(=O)c1cccc(NC(=O)Nc2cccc(C(=O)Nc3cc(C(=O)Nc4ccc(S(=O)(=O)O)c5cc(S(=O)(=O)O)cc(S(=O)(=O)O)c45)ccc3C)c2)c1 [Suramine, reference compound]
IC50 [3]: 0.03 ± 0.003 µM
